Experimental data published in patent publication US8192962B2, “Processes for detecting toxic substances” (Daikin Industries, Ltd., priority 2001, dated 2012).

Test system: Transport facilitation protein genes
Experiment: DNA chip mRNA expression in yeast, transport facilitation protein genes (Table 5)
Type: cell-based, Saccharomyces cerevisiae S288C
Method in brief: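 S. cerevisiae S288C grown at 25° C. in YPD to log phase, then exposed 2 h to a toxicant at a growth-inhibiting, non-lethal concentration; untreated cells as control. Poly(A) mRNA reverse-transcribed with Cy3-dUTP or Cy5-dUTP, hybridized >12 h at 65° C. to whole-genome yeast DNA chip; value = fluorescence ratio treated/untreated.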

Measured: The level of expressed mRNA in the presence of chemical substance/The level of expressed mRNA in the absence of chemical substance

COc1cc(CNC(=O)CCCCC=CC(C)C)ccc1O [(12), 8-methyl-N-vanillyl-6-nonenamide]
0.9: yeast gene YBL030C | yeast gene YBR127C | yeast gene YBR207W | yeast gene YBR295W | yeast gene YDL128W | yeast gene YDR387C | yeast gene YDR497C | yeast gene YEL027W | yeast gene YFL011W | yeast gene YFL050C | yeast gene YFL055W | yeast gene YGL006W | yeast gene YGR055W
2.4: yeast gene YGL008C
0.5: yeast gene YGR065C
1.3: yeast gene YBR052C | yeast gene YCL038C | yeast gene YCR098C
1.4: yeast gene YDR345C
1.7: yeast gene YEL065W | yeast gene YER053C
0.7: yeast gene YCR037C | yeast gene YDR038C | yeast gene YDR086C | yeast gene YER119C | yeast gene YGL255W | yeast gene YGR191W
1.1: yeast gene YBR298C | yeast gene YCL025C | yeast gene YDR298C | yeast gene YEL063C | yeast gene YFL041W | yeast gene YGL104C | yeast gene YGL167C
0.8: yeast gene YBR068C | yeast gene YDL210W | yeast gene YDR039C | yeast gene YGR082W | yeast gene YGR096W
0.6: yeast gene YGR138C | yeast gene YGR224W | yeast gene YGR260W
1.0: yeast gene YBL099W | yeast gene YBR132C | yeast gene YBR293W | yeast gene YBR294W | yeast gene YCR024C-A | yeast gene YDL245C | yeast gene YDR270W | yeast gene YDR342C | yeast gene YDR343C
1.2: yeast gene YDL198C | yeast gene YFL054C | yeast gene YGR197C
